ChEMBL document CHEMBL4732067, “Synthesis and evaluation of new compounds bearing 3-(4-aminopiperidin-1-yl)methyl magnolol scaffold as anticancer agents for the treatment of non-small cell lung cancer via targeting autophagy” (Eur J Med Chem, 2021)
Activity calls are given as the source filed them. The calls are words filed in the database; no cut-off is given here.

How the values were obtained:
[1] = test system: HCC827; test: Antiproliferative activity against human HCC827 cells assessed as reduction in cell viability after 72 hrs by MTT assay; assay type: functional, cell-based; settings: HCC827, 72 h
[2] = test system: NCI-H1975; test: Antiproliferative activity against human NCI-H1975 cells assessed as reduction in cell viability after 72 hrs by MTT assay; assay type: functional, cell-based; settings: NCI-H1975, 72 h
[3] = test system: NCI-H460; test: Antiproliferative activity against human NCI-H460 cells assessed as reduction in cell viability after 72 hrs by MTT assay; assay type: functional, cell-based; settings: NCI-H460, 72 h
[4] = test system: A549; test: Antiproliferative activity against human A549 cells expressing wild type EGFR assessed as reduction in cell viability after 72 hrs by MTT assay; assay type: functional, cell-based; settings: A549, 72 h
[5] = Antiproliferative activity against human SPCA1 cells expressing wild type EGFR assessed as reduction in cell viability after 72 hrs by MTT assay; assay type: functional, cell-based; settings: SPCA1, 72 h
[6] = test system: NCI-H441; test: Antiproliferative activity against human NCI-H441 cells […] assessed as reduction in cell viability after 72 hrs by MTT assay; assay type: functional, cell-based; settings: NCI-H441, 72 h
[7] = Metabolic stability in human liver microsomes assessed as intrinsic clearance per gram protein; assay type: ADME, Microsome
[8] = test system: L929; test: Cytotoxicity against mouse L929 cells; assay type: cell-based
[9] = Antitumor activity against mouse C26 cells xenografted in BALB/c mouse assessed as tumor growth inhibition at 50 mg/kg, po administered once daily and measured every two days by caliper method relative to control; assay type: functional; settings: 48 h, read-out: TGI
[10] = Toxicity in nude BALB/c mouse xenografted with C26 cells assessed as abnormalities in liver size and morphology at 50 mg/kg, po administered once daily; assay type: organism-based; settings: in vivo
[11] = Toxicity in nude BALB/c mouse xenografted with C26 cells assessed as abnormalities in lung size and morphology at 50 mg/kg, po administered once daily; assay type: organism-based; settings: in vivo
[12] = test system: NCI-H460; test: Antitumor activity against human NCI-H460 cells xenografted in nude BABL/c mouse assessed as tumor growth inhibition at 40 mg/kg, po administered once daily and measured every two days by caliper method relative to control; assay type: functional; settings: 48 h, read-out: TGI
[13] = Toxicity in nude BALB/c mouse xenografted with human NCI-H460 cells assessed as abnormalities in tissue at 20 to 40 mg/kg, po administered once daily; assay type: organism-based; settings: in vivo, dose 20-40 mg/kg
[14] = test system: NCI-H460; test: Induction of cell cycle arrest in human NCI-H460 cells assessed as accumulation at G0/G1 phase at 0.5 uM incubated for 24 hrs by propidium iodide staining based flow cytometry (reference value: 53.97 %); assay type: functional
[15] = test system: NCI-H460; test: Induction of cell cycle arrest in human NCI-H460 cells assessed as accumulation at S phase at 0.5 uM incubated for 24 hrs by propidium iodide staining based flow cytometry (reference value: 29.32 %); assay type: functional
[16] = test system: NCI-H460; test: Induction of cell cycle arrest in human NCI-H460 cells assessed as accumulation at G2/M phase at 1 uM incubated for 24 hrs by propidium iodide staining based flow cytometry (reference value: 16.71 %); assay type: functional
[17] = test system: NCI-H460; test: Induction of cell cycle arrest in human NCI-H460 cells assessed as accumulation at S phase at 1 uM incubated for 24 hrs by propidium iodide staining based flow cytometry (reference value: 29.32 %); assay type: functional
[18] = test system: NCI-H460; test: Induction of cell cycle arrest in human NCI-H460 cells assessed as accumulation at G0/G1 phase at 5 uM incubated for 24 hrs by propidium iodide staining based flow cytometry (reference value: 53.97 %); assay type: functional
[19] = test system: NCI-H460; test: Induction of cell cycle arrest in human NCI-H460 cells assessed as accumulation at G2/M phase at 5 uM incubated for 24 hrs by propidium iodide staining based flow cytometry (reference value: 16.71 %); assay type: functional
[20] = test system: NCI-H460; test: Induction of cell cycle arrest in human NCI-H460 cells assessed as accumulation at S phase at 5 uM incubated for 24 hrs by propidium iodide staining based flow cytometry (reference value: 29.32 %); assay type: functional
[21] = test system: NCI-H460; test: Induction of apoptosis in human NCI-H460 cells assessed as viable cells at 1 uM after 48 hrs by Annexin V-FITC/propidium iodide staining based flow cytometric analysis (reference value: 91.528 %); assay type: functional; settings: read-out: Activity
[22] = test system: NCI-H460; test: Induction of apoptosis in human NCI-H460 cells assessed as viable cells at 2 uM after 48 hrs by Annexin V-FITC/propidium iodide staining based flow cytometric analysis (reference value: 91.528 %); assay type: functional; settings: read-out: Activity
[23] = test system: NCI-H460; test: Induction of apoptosis in human NCI-H460 cells assessed as late apoptotic cells at 2 uM after 48 hrs by Annexin V-FITC/propidium iodide staining based flow cytometric analysis (reference value: 3.995 %); assay type: functional
[24] = test system: NCI-H460; test: Induction of apoptosis in human NCI-H460 cells assessed as necrotic cells at 2 uM after 48 hrs by Annexin V-FITC/propidium iodide staining based flow cytometric analysis (reference value: 0.498 %); assay type: functional
[25] = test system: NCI-H460; test: Induction of apoptosis in human NCI-H460 cells assessed as viable cells at 5 uM after 48 hrs by Annexin V-FITC/propidium iodide staining based flow cytometric analysis (reference value: 91.528 %); assay type: functional; settings: read-out: Activity
[26] = test system: NCI-H460; test: Induction of apoptosis in human NCI-H460 cells assessed as early apoptotic cells at 5 uM after 48 hrs by Annexin V-FITC/propidium iodide staining based flow cytometric analysis (reference value: 3.980 %); assay type: functional
[27] = test system: NCI-H460; test: Induction of apoptosis in human NCI-H460 cells assessed as necrotic cells at 5 uM after 48 hrs by Annexin V-FITC/propidium iodide staining based flow cytometric analysis (reference value: 0.498 %); assay type: functional
[28] = test system: NCI-H460; test: Induction of apoptosis in human NCI-H460 cells assessed as early apoptotic cells at 10 uM after 48 hrs by Annexin V-FITC/propidium iodide staining based flow cytometric analysis (reference value: 3.980 %); assay type: functional
[29] = test system: NCI-H460; test: Induction of apoptosis in human NCI-H460 cells assessed as late apoptotic cells at 10 uM after 48 hrs by Annexin V-FITC/propidium iodide staining based flow cytometric analysis (reference value: 3.995 %); assay type: functional
[30] = test system: NCI-H460; test: Induction of apoptosis in human NCI-H460 cells assessed as necrotic cells at 10 uM after 48 hrs by Annexin V-FITC/propidium iodide staining based flow cytometric analysis (reference value: 0.498 %); assay type: functional
[31] = test system: NCI-H460; test: Induction of apoptosis in human NCI-H460 cells assessed as increase in cleaved caspase 3 expression level after 48 hrs by Western blot analysis; assay type: functional, cell-based; settings: dose 0.5-10 µM
[32] = test system: NCI-H460; test: Induction of autophagy in human NCI-H460 cells assessed as up regulation of Beclin 1 protein expression after 24 hrs by Western blot analysis; assay type: functional, cell-based; settings: dose 0.5-10 µM
[33] = test system: NCI-H460; test: Induction of autophagy in human NCI-H460 cells assessed as degradation of SQSTM1/p62 at 0.5 to 10 uM measured after 24 hrs by Western blot analysis; assay type: functional, cell-based; settings: dose 0.5-10 µM
[34] = test system: NCI-H460; test: Induction of autophagy-induced cell death in human H460 cells at 0.04 to 5 uM after 24 hrs in presence of chloroquine diphosphate by MTT assay; assay type: functional, cell-based; settings: dose 0.04-5 µM
[35] = test system: NCI-H460; test: Antitumor activity against human NCI-H460 cells xenografted in nude BABL/c mouse assessed as upregulation of LC3-II expression in tumor tissue at 20 mg/kg, po administered once daily in presence of chloroquine diphosphate by Western blot analysis; assay type: functional, organism-based

Q: With `C=CCc1ccc(OC(C)C)c(-c2cc(CC=C)cc(CN3CCC(N)CC3)c2O)c1` as the molecule, how does the IC50 [1] read?
A: 630 nM

Q: What about the IC50 [2] of the same molecule?
A: 930 nM

Q: What about the IC50 [3] of the same molecule?
A: 860 nM

Q: And the IC50 [4]?
A: 910 nM

Q: And the IC50 [5]?
A: 1080 nM

Q: What about the IC50 [6] of the same molecule?
A: 940 nM

Q: What about the CLint [7] of the same molecule?
A: 8.8 mL/min/g

Q: What about the IC50 [8] of the same molecule?
A: 6240 nM

Q: What about the inhibition in vivo at 50 mg/kg [9] of the same molecule?
A: 65.4%

Q: What about the Activity [10] of the same molecule?
A: Non-Toxic

Q: What about the Activity [11] of the same molecule?
A: Non-Toxic

Q: And the inhibition in vivo at 40 mg/kg [12]?
A: 56.8%

Q: And the Activity [13]?
A: Non-Toxic

Q: And the Activity [14]?
A: 54.79%

Q: And the Activity [15]?
A: 23.58%

Q: What about the Activity [16] of the same molecule?
A: 19.64%

Q: And the Activity [17]?
A: 23.89%

Q: And the Activity [18]?
A: 59.89%

Q: What about the Activity [19] of the same molecule?
A: 17.5%

Q: And the Activity [20]?
A: 22.61%

Q: What about the viability at 1 µM [21] of the same molecule?
A: 91.1%

Q: What about the viability at 2 µM [22] of the same molecule?
A: 88.8%

Q: What about the Activity [23] of the same molecule?
A: 4.926%

Q: What about the Activity [24] of the same molecule?
A: 0.874%

Q: What about the viability at 5 µM [25] of the same molecule?
A: 53.5%

Q: And the Activity [26]?
A: 30.087%

Q: And the Activity [27]?
A: 0.608%

Q: What about the Activity [28] of the same molecule?
A: 34.82%

Q: What about the Activity [29] of the same molecule?
A: 33.48%

Q: What about the Activity [30] of the same molecule?
A: 1.58%

Q: What about the Activity [31] of the same molecule?
A: Dose-dependent effect

Q: And the Activity [32]?
A: Dose-dependent effect

Q: And the Activity [33]?
A: Active

Q: And the Activity [34]?
A: Active

Q: What about the Activity [35] of the same molecule?
A: Active
